Common to all, as to assay: NCI tumour cell line growth inhibition, 48 h
In assay [1] the test system is IGROV-1.
In assay [2] the test system is U-251.
Assay [3] has as its system SK-MEL-2.
Assay [4] has as its system SN12C.
The subject of assay [5] is OVCAR-5.
For assay [6], the system named is SF-295.
The subject of assay [7] is SK-MEL-28.
The test system of assay [8] is SF-268.
Assay [9] deals with M19-MEL.
In assay [10] the test system is HCC 2998.
The test system of assay [11] is HOP-62.
The test system of assay [12] is DMS-273.
Assay [13] relates to HT-29.
In assay [14] the test system is COLO 205.
The subject of assay [15] is NCI-H226.
The subject of assay [16] is UACC-257.
The test system of assay [17] is HL-60.
Assay [18] has as its system OVCAR-4.
Assay [19] relates to TK-10.
For assay [20], the system named is ACHN.

The structures appear in SMILES notation.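 Cultured in 96-well plates, cells were exposed to test compound for 48 hours across five concentrations. GI50 marks 50% less growth.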 Calls of active or inactive are those of the source. No stated cut-off is given here; in the data, active = GI50 up to about 1.1 µM and inactive = higher.

For `CC1(CO)C(O)CCC2(C)C1C(O)CC1CC3CC12CCC3(O)CO` (configuration not stated), the GI50 in assay [1] was > 225 µM (inactive); in assay [2] it was > 225 µM (inactive); in [3] it was > 225 µM (inactive); in assay [4], > 225 µM (inactive); in assay [5] it was > 225 µM (inactive); in assay [6], 91.2 µM (inactive). Moreover, the GI50 in assay [7] is > 225 µM (inactive); in assay [8], > 191 µM (inactive); in [9], > 153 µM (inactive); in assay [10], > 225 µM (inactive); in assay [11], > 225 µM (inactive); in assay [12] it was 104 µM (inactive). Also, the GI50 is > 225 µM (inactive) in assay [13]; > 225 µM (inactive) in [14]; 116 µM (inactive) in assay [15]; > 225 µM (inactive) in assay [16]; 102 µM (inactive) in assay [17]; > 225 µM (inactive) in assay [18].
For the molecule `CCOCC(=O)N(C)c1cccc2c3c(n(C)c12)CCCCC3`, the GI50 in [1], in assay [2], in assay [3], in [4], in [5] and in [6] was > 100 µM (inactive) throughout. For the same molecule, the GI50 was > 100 µM (inactive) in [7]; > 100 µM (inactive) in assay [8]; > 100 µM (inactive) in assay [9]; > 100 µM (inactive) in assay [10]; > 100 µM (inactive) in assay [11]; > 31.6 µM (inactive) in [12]. For the same molecule, the GI50 in assay [13] was > 100 µM (inactive); in assay [14] it was > 100 µM (inactive); in [15], > 100 µM (inactive); in assay [16], 1 µM (active); in assay [17] it was > 100 µM (inactive); in [18] it was > 100 µM (inactive).
Turning to `Cc1cc(OCC(O)CO)ccc1Cl` (configuration not stated), the GI50 in assay [1], in assay [2], in [3], in assay [19], in [20] and in assay [4] was > 100 µM (inactive) in each case. The GI50 in [5], in assay [6], in assay [7], in assay [8], in assay [9] and in assay [10] was > 100 µM (inactive) in each case. The GI50 in assay [11], in assay [12], in [13], in assay [14], in assay [15] and in [16] was > 100 µM (inactive) in each case. The GI50 in assay [17] and in assay [18] was > 100 µM (inactive) each time.
Turning to `C/C(=N\N)C(CN1CCCCC1)C(c1ccccc1)c1c(O)c2ccccc2oc1=O` (configuration not stated), the GI50 in assay [1], in assay [2], in assay [3], in assay [19], in assay [20] and in assay [4] was > 100 µM (inactive) throughout. Also, the GI50 in assay [5], in assay [6], in assay [7], in [8], in [9] and in assay [10] was > 100 µM (inactive) throughout. For the same molecule, the GI50 in assay [11], in assay [12], in [13], in [14], in assay [15] and in assay [16] was > 100 µM (inactive) each time. Also, the GI50 in assay [17] is > 71 µM (inactive); in assay [18] it was > 100 µM (inactive).
For the molecule `O=[N+]([O-])c1ccc(CNC2=NNS(=O)(=O)c3ccccc32)cc1`, the GI50 in [1] was > 100 µM (inactive); in assay [2] it was 72.1 µM (inactive); in [3] it was > 100 µM (inactive); in assay [20], > 100 µM (inactive); in [4], > 100 µM (inactive); in assay [5], > 100 µM (inactive). The GI50 in assay [6], in [8], in [9], in assay [10], in assay [12] and in assay [13] was > 100 µM (inactive) in each case. Further, the GI50 was > 100 µM (inactive) in assay [14]; > 100 µM (inactive) in assay [15]; > 100 µM (inactive) in assay [16]; 79.3 µM (inactive) in [17]; > 100 µM (inactive) in assay [18].
With `Cc1nc(Nc2nnc(-c3cc([N+](=O)[O-])cc([N+](=O)[O-])c3C)o2)sc1C(=O)CC(=O)Cc1nc2ccc(Cl)cc2nc1O`, the GI50 in assay [1], in assay [2], in assay [3], in assay [19], in [20] and in [4] was > 100 µM (inactive) each time. The GI50 in [5], in assay [6], in assay [7], in assay [8], in assay [9] and in [10] was > 100 µM (inactive) each time. Besides, the GI50 in assay [11] was > 100 µM (inactive); in assay [12], 50.5 µM (inactive); in [13], > 100 µM (inactive); in [14], > 100 µM (inactive); in assay [15] it was > 100 µM (inactive); in assay [16] it was > 100 µM (inactive). In addition, the GI50 in assay [17] and in [18] was > 100 µM (inactive) in each case.
As to `[N-]=[N+]=NC1(Cc2ccccc2)C(=O)Nc2ccccc2C1=O` (configuration not stated), the GI50 is 88.7 µM (inactive) in assay [1]; > 100 µM (inactive) in assay [2]; > 100 µM (inactive) in [3]; > 100 µM (inactive) in assay [19]; > 100 µM (inactive) in [20]; > 100 µM (inactive) in assay [4]. Further, the GI50 in assay [5], in assay [6], in [7], in [8], in assay [9] and in [10] was > 100 µM (inactive) throughout. Moreover, the GI50 in assay [11], in assay [12], in assay [13], in [14], in [16] and in assay [17] was > 100 µM (inactive) in each case. Further, the GI50 in assay [18] was > 100 µM (inactive).

These data come from ChEMBL document CHEMBL1201862, “PubChem BioAssay data set” (2004).
